This is an account of results in patent US10822317B2, “Methods and compositions for wound healing” (QBiotics Limited, priority 2013, dated 2020).

Assay [1] concerns HaCaT cells. The experiment in a line: HaCaT scratch repopulation with Mitomycin C (migration study). The class given is cell-based, human. To be noted: with 1 μg/mL Mitomycin C; 0.001 to 1.0 μg/mL; p<0.05.
Assay [2] deals with immortalised human keratinocyte cells (HaCaT). The experiment in a line: Scratch repopulation and closure with HaCaT. The class given is cell-based. To be noted: 48 hours, ± standard error. As to the method:
The ability of immortalised human keratinocyte cells (HaCaT) to migrate across a scratch wound made in a confluent monolayer following treatment with either Compound 1 or Compound 37 was determined by the following method.
Trypsinised HaCaT cells were seeded at a cell density of 7.4×10^4 cells/mL in 24-well BD Falcon flat-bottomed, tissue culture plates (VWR International, UK) in 1 mL Dulbecco's Modified Eagle Medium (DMEM), supplemented with L-glutamine (2 mM), antibiotics (100 U/mL penicillin G sodium, 100 μg/mL streptomycin sulphate and 0.25 μg/mL amphotericin B); and 10% foetal calf serum (all Invitrogen Ltd., UK) to give a cell density of 7.4×10^4 cells seeded in each well. The cells were then maintained at 37° C. in a 5% CO2/95% air atmosphere overnight. The following morning, the 10% foetal calf serum-containing DMEM was replaced with serum-free DMEM and the HaCaT cells were subsequently serum-starved in DMEM for 48 hr.
After 48 hr, the serum-free DMEM was removed and a single scratch ‘wound’ made with a sterile pipette across each cell layer. Following washing twice in 1 mL PBS, Compound 1- or Compound 37-containing medium (1 mL) was added to each well. This medium consisted of DMEM, supplemented with L-glutamine (2 mM), antibiotics (as above) and 1% foetal calf serum, in addition to Compound 1 or Compound 37 at final concentrations of 0, 0.001, 0.01, 0.1, 1.0, 10 or 100 μg/mL. There were three replicate wells per concentration for each compound.
The HaCaT cultures were maintained at 37° C. in a 5% CO2/95% air atmosphere and the repopulation of the denuded ‘wound’ areas monitored by Time-Lapse Confocal Microscopy (Leica TCS SP5 Confocal Microscope; Leica Microsystems UK Ltd., UK) at 100× magnification, with digital images captured at fixed positions every 20 min over a 48 h period. The digital image sequences were exported and prepared as .avi movie files, using LAS AF Software (Leica Microsystems). The rates of HaCaT wound closure in vitro were quantified using ImageJ Software (ImageJ 1.37v; http://rsb.info.nih.gov/ij/). The data was analysed by One Way Analysis of Variance with post-test Tukey analysis. Each experiment was performed on 3 separate occasions.

Assay [3] relates to chronic, non-healing wounds. The experiment in a line: Veterinary clinical treatment of non-healing and difficult wounds, 10 pet animals (overall). In kind it is in vivo, dogs, tree kangaroos, spectacled flying fox. To be noted: eight completed cases; open wounds, no dressings. Here is the method:
Compound 1 has been used to treat to heal difficult wounds in 10 pet (i.e. privately owned and cared for) animals with the aim of improving second intention wound healing
Seven dogs (Canis lupus familiaris) and one tree kangaroo (Dendrolagus humholzii) with chronic, non-healing wounds that were unresponsive to current veterinary standards-of-care for these indications were treated with Compound 1 by independent veterinarians. A second tree kangaroo and a spectacled flying fox (Pteropus conspicillatus) with wounds unsuited for initial treatment with current standards-of-care were also treated with Compound 1. All cases were managed as open wounds without the use of dressings or other bandaging during the course of treatment with Compound 1 and the subsequent period of wound resolution. Unless stated in individual case studies, no concomitant medications were used over the course of treatments with Compound 1.
Case and treatment notes for each of these patients are summarised below. Note that the return presentation of these animals to the treating veterinarians was often irregular and wound healing outcomes may have occurred well before the return assessment visits.

Assay [4] concerns immortalised human keratinocyte cells (HaCaT). The assay is described as follows: Scratch repopulation and closure with HaCaT. To be noted: 48 hrs; 0.001, 0.01 and 0.1 μg/ml; p<0.01. In kind it is cell-based.

The structures appear in SMILES notation.

For the compound `CC=C(C)C(=O)OC1C(C)C2(O)C(C3OC3(CO)C(O)C3(O)C(=O)C(C)=CC32)C2C(C)(C)C12OC(=O)C(C)CC` (centres unmarked) [Compound 1, 12-tigloyl-13-(2-methylbutanoyl)-6,7-epoxy-4,5,9,12,13,20-hexahydroxy-1-tigliaen-3-one], the “scratch repopulation and closure (migration study)” value in assay [1] was “enhanced”. For the same compound, the “% of scratch wound area remaining open after treatment” value in assay [2] (0.001 μg/ml) was found to be 8.6 ± 9.4%; in assay [2] (0.01 μg/ml), 19.7 ± 9.3%; in assay [2] (0.1 μg/ml), 21.4 ± 5.8%; in assay [2] (1.0 μg/ml), 35.4 ± 7.9%; in assay [2] (10 μg/ml), 45.5 ± 7.3%. Moreover, the wound resolution result in assay [3] is “effective wound resolution with minimal scarring”. For the same compound, in assay [4], the “rate of scratch closure compared to the control treatment” value is listed as “significantly increased”.
